# Reference: Sander's compilation of Henry's law constants (doi:10.1007/s002160101077)
# Assay: Henry solubility constant Hcp at 298.15 K (mol/(m3 Pa))
# Conditions: reference: Pfeifer et al. (2001)
row,Henry solubility constant Hcp,SMILES
1,0.0092,"COc1c(Cl)c(Cl)c(Br)c(Cl)c1Cl [4-bromo-2,3,5,6-tetrachloro-1-methoxybenzene]"
2,0.0044,"COc1cc(Cl)c(Cl)c(Cl)c1 [1,2,3-trichloro-5-methoxybenzene]"
3,0.01,"COc1c(Cl)c(Cl)cc(Br)c1Cl [3-bromo-2,5,6-trichloro-1-methoxybenzene]"
4,0.021,"COc1cc(Cl)ccc1Cl [1,4-dichloro-2-methoxybenzene]"
5,0.0091,"COc1c(Br)cc(Br)c(Cl)c1Br [2,4,6-tribromo-3-chloro-1-methoxybenzene]"
6,0.0023,"COc1cc(Cl)cc(Cl)c1 [1,3-dichloro-5-methoxybenzene]"
7,0.011,"COc1cc(Cl)cc(Cl)c1Br [2-bromo-3,5-dichloro-1-methoxybenzene]"
8,0.022,"COc1cccc(Cl)c1Cl [1,2-dichloro-3-methoxybenzene]"
9,0.029,COc1ccccc1Br [1-bromo-2-methoxybenzene]
10,0.0065,"COc1cc(Cl)c(Cl)c(Cl)c1Cl [1,2,3,4-tetrachloro-5-methoxybenzene]"
11,0.0091,"COc1cc(Cl)c(Br)c(Cl)c1Br [2,4-dibromo-3,5-dichloro-1-methoxybenzene]"
12,0.012,"COc1c(Cl)cc(Cl)cc1Br [2-bromo-4,6-dichloro-1-methoxybenzene]"
13,0.013,"COc1ccc(Cl)c(Cl)c1Cl [1,2,3-trichloro-4-methoxybenzene]"
14,0.045,COc1cccc(Cl)c1 [1-chloro-3-methoxybenzene]
15,0.018,COc1ccc(Cl)cc1Br [2-bromo-4-chloro-1-methoxybenzene]
16,0.0031,"COc1c(Cl)cc(Cl)c(Cl)c1Cl [1,2,3,5-tetrachloro-4-methoxybenzene]"
17,0.011,"COc1cc(Cl)c(Br)c(Cl)c1 [4-bromo-3,5-dichloro-1-methoxybenzene]"
18,0.012,"COc1c(Cl)cc(Br)cc1Cl [4-bromo-2,6-dichloro-1-methoxybenzene]"
19,0.011,"COc1c(Br)cc(Cl)cc1Br [2,6-dibromo-4-chloro-1-methoxybenzene]"

row,Henry solubility constant Hcp,SMILES
1,0.013,COc1ccc(Br)cc1Cl [4-bromo-2-chloro-1-methoxybenzene]
2,0.081,"COc1ccc(Br)cc1Br [1,5-dibromo-2-methoxybenzene]"
3,0.012,"COc1ccc(Cl)cc1Cl [1,5-dichloro-2-methoxybenzene]"
4,1,COc1c(Br)c(Br)c(Br)c(Br)c1Br [pentabromomethoxybenzene]
5,0.0032,"COc1c(Cl)c(Cl)cc(Cl)c1Cl [1,2,4,5-tetrachloro-3-methoxybenzene]"
6,0.011,"COc1c(Br)ccc(Cl)c1Cl [6-bromo-2,3-dichloro-1-methoxybenzene]"
7,0.0021,COc1c(Cl)c(Cl)c(Cl)c(Cl)c1Cl [pentachloromethoxybenzene]
8,0.01,"COc1c(Cl)cc(Cl)c(Br)c1Cl [3-bromo-2,4,6-trichloro-1-methoxybenzene]"
9,0.0098,"COc1c(Br)cc(Br)c(Cl)c1Cl [2,4-dibromo-5,6-dichloro-1-methoxybenzene]"
10,0.01,"COc1c(Cl)cc(Br)c(Cl)c1Cl [4-bromo-2,3,6-trichloro-1-methoxybenzene]"
11,0.011,COc1ccc(Br)cc1 [1-bromo-4-methoxybenzene]
12,0.011,"COc1cc(Cl)c(Cl)cc1Cl [1,2,4-trichloro-5-methoxybenzene]"
13,0.011,"COc1ccc(Br)c(Cl)c1Cl [4-bromo-2,3-dichloro-1-methoxybenzene]"
14,0.011,"COc1cc(Br)c(Cl)cc1Cl [5-bromo-2,4-dichloro-1-methoxybenzene]"
15,0.037,"COc1c(Br)cccc1Br [1,3-dibromo-2-methoxybenzene]"
16,0.014,COc1c(Cl)cccc1Br [2-bromo-6-chloro-1-methoxybenzene]
17,0.0088,"COc1c(Cl)cccc1Cl [1,3-dichloro-2-methoxybenzene]"
18,0.0072,COc1cccc(Br)c1 [1-bromo-3-methoxybenzene]

row,SMILES,Henry solubility constant Hcp
1,"COc1c(Cl)cc(Cl)cc1Cl [1,3,5-trichloro-2-methoxybenzene]",0.0046
2,"COc1c(Br)cc(Br)cc1Br [1,3,5-tribromo-2-methoxybenzene]",0.013
3,"COc1ccc(Cl)c(Cl)c1 [1,2-dichloro-4-methoxybenzene]",0.0092
4,"COc1c(Cl)ccc(Cl)c1Cl [1,2,4-trichloro-3-methoxybenzene]",0.0098
